Article PMC10878790 (The Journal of Biological Chemistry, 2024)
“Also recorded” adds a separate entry of the source. Square brackets hold non-standard residues; d marks the D form. Peptide text beside a SMILES is read from it.

What was measured:
MDA-MB-231 cells [1] = experiment: Wound healing assay; format: cell-based; conditions: equimolar peptide concentrations; compared to untreated cells
Protocol: (§1) The wound healing assay was performed using two breast cancer cell lines, MDA-MB-231 and MCF-7, and two prostate cancer cell lines, PC-3 and DU-145, to evaluate the antimigratory capacity of the peptides. […] The cells were grown to approximately 80% confluency in 12-well tissue culture plates, and a cell-free area was created by scraping the monolayer. The peptides were added, and the cells were incubated at 37 °C with 5% CO2 for 24 h. Wound closure was assessed by imaging the wounds at 0 and 24 h, and the wound areas were quantified using ImageJ software (https://imagej.net/ij/). In the transwell invasion assay, MDA-MB-231 cells were serum starved for 4 h followed by a pretreatment with increasing concentrations of each peptide in a 0.1% serum-containing DMEM for 24 h. The cells were then trypsinized, resuspended in same media for the second treatment of peptides, and counted. Next, 40,000 cells were resuspended in 0.1% serum containing DMEM and added to the upper chamber of Transwell plates (Corning Life Sciences) with a polyethylene terephthalate membrane (6.4 mm diameter, 8 μm pore size). The bottom chambers were filled with DMEM containing 10% FBS as a chemoattractant. The transwell plates were incubated at 37 °C with 5% CO2 for 24 h to allow the invasion of cells through the membrane. The invaded cells on the lower side of the membrane were fixed with 4% paraformaldehyde for 15 min, followed by a PBS wash. The membrane inserts were further fixed with ice-cold methanol for 20 min and stained with 0.25% (w/v) crystal violet. After incubation, the noninvasive cells on the upper surface of the membrane were gently removed using a cotton swab. Random fields were chosen for imaging, and the number of invaded cells was counted using ImageJ software. The results were expressed as the average number of invaded cells compared with the control.

MDA-MB-231 cells [2] = experiment: Transwell invasion assay; format: cell-based; conditions: 24 h
Protocol: as §1

DU-145 = format: cell-based; conditions: MTT, 48 hours
Protocol: (§2) MDA-MB-231, MCF-7, DU-145, PC-3, and NIH-3T3 cell lines were procured from the American Type Culture Collection and used within ten consecutive passages to ensure consistent cell behavior. MDA-MB-231, MCF-7, and NIH-3T3 cells were maintained at 37 °C and 5% CO2 in Dulbecco's modified Eagle's medium (DMEM) high glucose (Hyclone) supplemented with 10% fetal bovine serum (FBS) and 1% Antibiotic-Antimycotic (Gibco), while DU-145 and PC-3 cells were grown in RPMI-1640 supplemented with the same concentration of FBS and Antibiotic-Antimycotic. The media was replenished every 2 days. Cells were checked for mycoplasma at regular intervals using a PCR-based Mycoplasma detection kit plasmocin prophylactic (InvivoGen). In all experiments, cells were maintained in serum-free DMEM for 6 h before peptide treatment. Peptide treatment was done in the media containing 0.1% fetal bovine serum for 48 h in all the experiments unless otherwise stated.
(§3) Cell viability was determined by 3-[4,5-dimethylthiazol-2-yl]-2,5 diphenyl tetrazolium bromide (MTT) assay as described earlier ([52]). ProTox-II "Prediction of Toxicity of Chemicals" web server was used for toxicology assessment ([19]). See the Supporting Information for full experimental details.
(§4) Full Experimental Method for Cell Viability Assay:
(§5) Cell viability of murine NIH- 3T3 cells, as well as MDA- MB -231 , MC F-7, PC- 3, and DU-145 cells, wa s assessed through the MT T assay as described previously(1). Approximately
(§6) 5000 cells per well were seeded in a 96-well plate and allowed to incubate overnight for attachment. Following attachment, the growth medium was replaced wit h a fresh medium
(§7) containing serial dilutions of peptides. The cells we re then incubated for 48 hours in a 5% CO2 incubator . After incubation, 10 μl of a 5 mg/mL MT T solution was introduced to each
(§8) well and left to incubate for an additional 2 hours . Subsequently, the entire medium, along wit h the MT T solution, was aspirated, and the remaining formazan crystals were dissolved
(§9) in 200 μl of DMSO. The absorbance was measured at 595 nm using a Biotek Synergy 2 Plate Reader. […]
(§10) ProTox-II "Prediction of Toxicity of Chemicals" we b server was used for toxicology assessment. […]

MCF-7 = format: cell-based; conditions: MTT, 48 hours
Protocol: as §2, §3, §4, §5, §6, §7, §8, §9, §10

MDA-MB-231 = format: cell-based; conditions: MTT, 48 hours
Protocol: as §2, §3, §4, §5, §6, §7, §8, §9, §10

PC-3 = format: cell-based; conditions: MTT, 48 hours
Protocol: as §2, §3, §4, §5, §6, §7, §8, §9, §10

NIH-3T3 = format: cell-based, murine; conditions: MTT, 48 hours; normal cells
Protocol: as §2, §3, §4, §5, §6, §7, §8, §9, §10

MDA-MB-231 cells [3] = experiment: Western blot of MIEN1 signaling pathway proteins; format: cell-based; conditions: mean values of immunoblot densitometry
Protocol: Cells were exposed to the peptides and subjected to Western blot analysis with the indicated antibodies. […] Cytoplasmic and nuclear cell lysate extracts of EGF only and EGF plus peptide-treated cells were probed for p65 and p50. Lamin A/C and β-actin were used as nuclear and cytoplasmic loading control respectively. Densitometry was determined with immunoblots (N = 3) and normalized to total protein or β-actin for whole cell lysates and cytoplasmic fraction of peptide-treated MDA-MB-231 cells. In case of nuclear lysates, the immunoblots were normalized with Lamin A/C. Bar graphs are densitometric data (means ± SD). […] EGF concentration: (10 ng/ml); Peptide concentration: 90 μM. EGF, epidermal growth factor; MIEN1, migration and invasion enhancer 1; NF-κB, nuclear factor kappa B.
Western blot analysis was performed according to standard protocols to assess the effects of MIEN1-derived peptides and their analogs on MDA-MB-231 cells and DU-145 cells. Cell lysates were prepared using radioimmunoprecipitation assay buffer and quantified for protein content by bicinchoninic acid method. […] Protein blocking with 5% bovine serum albumin was followed by incubation with primary antibodies specific to various proteins at 4 °C for 8 to 10 h. The membrane was then washed three times in Tris Buffered Saline with Tween 20 and incubated with the appropriate secondary antibody. Protein bands were visualized using the Alpha Innotech chemiluminescent detection system. In case of MDA-MB-231 cells, cytoplasmic and nuclear extracts were isolated to investigate the effects of peptides and/or EGF stimulation. Prior to exposure to the cells, the test peptides (90 μM) were incubated with EGF (10 ng/ml) in media at 4 °C for 15 min. The untreated MDA-MB-231 cells received EGF alone at the same concentration. The isolation of cytoplasmic and nuclear fractions was performed using the Subcellular Protein Fractionation Kit for Cultured Cells from Thermo Fisher Scientific (cat #78840) following the manufacturer's guidelines. For Western blot experiments, 20 μg of purified cytoplasmic and nuclear fraction was used.
Densitometry analysis of Western blot data was conducted using the AlphaView-FluorChem HD2 software of the Alpha Innotech chemiluminescent detection system (https://www.cambridgescientific.com/product/alpha-innotech-fluorchem-hd2-gel-imaging-system). To quantify band intensities, a uniform rectangle was drawn around each band, and background subtraction was applied to determine the total pixel density for each lane. Further calculations, including the determination of the ratio of phosphorylated proteins to total proteins or other loading controls, were carried out using Microsoft Excel. […]

[4] = Mouse liver microsome stability; conditions: for remaining at 2 h, 2 μM / half-life at 2 μM: male; for remaining at 2 h, 2 μM: Institute of Cancer Research/CD-1, mouse; for half-life at 2 μM: ICR/CD-1, mouse
Protocol: An NADPH-regenerating system (1.7 mg/ml NADP, 7.8 mg/ml glucose-6-phosphate, 6 U/ml glucose-6-phosphate dehydrogenase in 2% w/v NaHCO3/10 mm MgCl2) was added for analysis of Phase I metabolism after heating both the regenerating solution and the sample tubes to 37 °C for 5 min in a 37 °C shaking water bath. The incubation was continued and at varying time points after addition of phase I cofactors, the reaction was stopped by the addition of 0.5 ml of acetonitrile containing IS and formic acid such that the final concentration of IS was 100 ng/ml and acid was 0.1%. Time 0 samples were stopped with the acetonitrile solution while still on ice prior to addition of the NADPH regenerating system and compound, which were subsequently added. The samples were incubated for 10 min at room temperature and then spun at 16,100g for 5 min in a microcentrifuge at 4 °C. The supernatant was analyzed by LC-MS/MS. The method described by McNaney et al. was used with modification for determination of metabolic stability half-life by substrate depletion ([59]). A “% remaining” value was used to assess the metabolic stability of a compound over time. The LC-MS/MS peak area of the incubated sample at each time point was divided by the LC-MS/MS peak area of the time 0 (T0) sample and multiplied by 100. The natural Log (LN) of the % remaining of compound was then plotted versus time (in min) and a linear regression curve was plotted going through y-intercept at LN (100).

[5] = Pharmacokinetic studies in CD1 mice; conditions: in vivo, iv, 5 mg/kg
[6] = In vivo toxicity of peptides alone; set-up: species or system athymic nude mice; conditions: for body weight / signs of distress / survival: 90 mg/Kg ip on day 5, day 10 and day 15; for survival: after 30 days; for signs of toxicity: three ip doses of 90 mg/Kg, 90 mg/kg
Protocol: MDA-MB-231 cells were implanted orthotopically into the second thoracic mammary fat pad of nude mice (n = 5). […] The control mice received vehicle only. B, at the end of the experiments, representative tumors were removed and photographed. […] The tumor sizes were measured by a digital caliper and shown as mean volume ± SDs every alternate day for 30 days. […] The statistical analysis was performed on GraphPad Prism 9.4.0. […] E–H, Western blots of cell lysates prepared from the tumors of untreated tumor (Vehicle) versus LA3IK and RP-7 for apoptosis-associated proteins. Number of tumors taken for study = 4 per group. Densitometry was determined and normalized to β-actin. Bar graphs are densitometric data (means ± SD). Data analyzed by one-way ANOVA. ∗p < 0.05,∗∗p <0.01 and ∗∗∗p < 0.001. Full-length representative blots are in Figure S8(2). […] The mice were monitored for changes in body weights as a surrogate marker for toxicity.
Cleaved caspase-3 plays a pivotal role in transmitting apoptotic signals through its enzymatic actions on downstream targets, including PARP and other substrates. PARP, which is an ADP-ribosylating enzyme, is essential for initiating various types of DNA repair processes ([29]). However, when it is cleaved by activated caspase-3, PARP loses its functionality, leading to the suppression of DNA repair mechanisms. This, in turn, may promote cell death through both caspase-dependent and caspase-independent pathways of apoptosis ([30]).

Compound	IC50 (DU-145)	IC50 (MCF-7)	IC50 (MDA-MB-231)	IC50 (PC-3)	IC50 (NIH-3T3)	remaining at 2 h, 2 μM ([4]; microsomes, pH 7.5)	body weight / signs of distress [6]	survival [6]	signs of toxicity [6]	also measured
CC[C@H](C)[C@H](NC(=O)[C@@H](NC(=O)[C@H](CS)NC(=O)[C@@H]1CCCN1C(=O)[C@@H]1CCCN1C(=O)[C@H](CCCNC(=N)N)NC(=O)[C@H](CS)NC(C)=O)C(C)C)C(=O)N[C@@H](CC(C)C)C(N)=O [CR-8] (Ac-CRPPCVIL-NH2)										inhibition of migration (MDA-MB-231 cells [1]): limited inhibition; number of invaded MDA-MB-231 cells / inhibition of invasion (MDA-MB-231 cells [2]): limited inhibition
CC[C@@H](C)[C@@H](NC(=O)[C@H](NC(=O)[C@@H](CS)NC(=O)[C@H]1CCCN1C(=O)[C@H]1CCCN1C(=O)[C@@H](CCCNC(=N)N)NC(C)=O)C(C)C)C(=O)N[C@H](CC(C)C)C(N)=O [D-RP-7] (Ac-[dR][dP][dP][dC][dV][dI][dL]-NH2)	122 ± 6.56 µM	90 ± 10.3 µM	95 ± 7.71 µM	101 ± 5.73 µM	210 ± 8.41 µM	64.4%				greater inhibition of FAK phosphorylation than L-peptide counterpart (MDA-MB-231 cells [3]): 24.2%; greater inhibition of SRC phosphorylation than L-peptide counterpart (MDA-MB-231 cells [3]): 29.5%; half-life ([4]; mouse, microsomes, Mouse Liver Microsome T ½ (h), 2 μM peptide, 0.5 mg/ml microsome protein, NADPH-regenerating system): > 2 h; MRT ([5]; female, CD1, mouse): 5.7 h; Tmax ([5]; female, CD1, mouse): 4.8 min; Vd ([5]; female, CD1, mouse): 1700 L/kg; Cmax ([5]; mouse): 48 ng/mL; Vd ([5]; mouse): 1310 L/kg; clearance ([5]; mouse): 1420 mL/min/kg; half-life ([5]; mouse): 13.8 h
CC[C@H](C)[C@H](NC(=O)[C@H](C)NC(=O)[C@H](CC(C)C)NC(C)=O)C(=O)N[C@@H](C)C(=O)N[C@H](C(=O)N[C@@H](CCCCN)C(N)=O)C(C)C [LA3IK, LAIAVK]							No body weight loss or other signs of distress	All mice (N = 3) were alive	did not display any signs of toxicity; also recorded: no significant toxicity	half-life at 2 μM ([4]; liver microsomes, pH 7.5): > 2 h; remaining at 2 h, 2 μM ([4]; liver microsomes, pH 7.5): 83.7%
Ac-RPPCVIL-NH2 [RP-7]	121 ± 7.08 µM	110 ± 4.23 µM	139 ± 8.41 µM	113 ± 8.02 µM	221 ± 6.23 µM	17.7%	No body weight loss or other signs of distress	All mice (N = 3) were alive	did not display any signs of toxicity; also recorded: no significant toxicity	half-life at 2 μM ([4]; microsomes, pH 7.5, Mouse Liver Microsome T1/2, 2 μM peptide): 0.872 h; half-life at 2 μM ([4]; microsomes, pH 7.5, Mouse Liver Microsome T ½ (h), 2 μM peptide, 0.5 mg/ml microsome protein, NADPH-regenerating system): 0.87 h
